Data: PubChem BioAssay (NCI)
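GI50 is the concentration that inhibits growth by half. TGI marks complete inhibition of growth.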

How the values were obtained:
Experiment in all cases: NCI tumour cell line growth inhibition, 384-well format
K-562 leukemia = test system: K-562 leukemia
NCI-H522 lung = test system: NCI-H522 lung
BT-549 breast = test system: BT-549 breast
CCRF-CEM leukemia = test system: CCRF-CEM leukemia
SK-MEL-28 melanoma = test system: SK-MEL-28 melanoma
UACC-62 melanoma = test system: UACC-62 melanoma
A498 renal = test system: A498 renal
MCF7 breast = test system: MCF7 breast
RXF 393 renal = test system: RXF 393 renal
SNB-75 CNS = test system: SNB-75 CNS
RPMI-8226 leukemia = test system: RPMI-8226 leukemia
A549 NSCLC = test system: A549 NSCLC
SK-MEL-5 melanoma = test system: SK-MEL-5 melanoma
HOP-62 NSCLC = test system: HOP-62 NSCLC
786-0 renal = test system: 786-0 renal
HOP-92 NSCLC = test system: HOP-92 NSCLC
SNB-19 CNS = test system: SNB-19 CNS
SK-OV-3 ovarian = test system: SK-OV-3 ovarian
NCI-H460 NSCLC = test system: NCI-H460 NSCLC
EKVX NSCLC = test system: EKVX NSCLC
LOX IMVI melanoma = test system: LOX IMVI melanoma
HS 578T breast = test system: HS 578T breast
DU-145 prostate = test system: DU-145 prostate
NCI-H322M lung = test system: NCI-H322M lung
U251 glioblastoma = test system: U251 glioblastoma
OVCAR-8 ovarian = test system: OVCAR-8 ovarian
MOLT-4 leukemia = test system: MOLT-4 leukemia
TK-10 renal = test system: TK-10 renal
NCI/ADR-RES ovarian = test system: NCI/ADR-RES ovarian
SF-268 CNS = test system: SF-268 CNS
UO-31 renal = test system: UO-31 renal
HT29 colon = test system: HT29 colon
UACC-257 melanoma = test system: UACC-257 melanoma
OVCAR-3 ovarian = test system: OVCAR-3 ovarian
COLO 205 colon = test system: COLO 205 colon
SW-620 colon = test system: SW-620 colon
SK-MEL-2 melanoma = test system: SK-MEL-2 melanoma
T-47D breast = test system: T-47D breast
MALME-3M melanoma = test system: MALME-3M melanoma
OVCAR-5 ovarian = test system: OVCAR-5 ovarian
IGROV1 ovarian = test system: IGROV1 ovarian
HCT-15 colon = test system: HCT-15 colon
MDA-MB-435 melanoma = test system: MDA-MB-435 melanoma
PC-3 prostate = test system: PC-3 prostate
NCI-H23 lung = test system: NCI-H23 lung
MDA-MB-231 breast = test system: MDA-MB-231 breast
SF-295 CNS = test system: SF-295 CNS
CAKI-1 renal = test system: CAKI-1 renal
M14 melanoma = test system: M14 melanoma
HCC-2998 colon = test system: HCC-2998 colon
HL-60(TB) leukemia = test system: HL-60(TB) leukemia
SN12C renal = test system: SN12C renal
NCI-H226 lung = test system: NCI-H226 lung
SF-539 CNS = test system: SF-539 CNS
MDA-MB-468 breast = test system: MDA-MB-468 breast
HCT-116 colon = test system: HCT-116 colon
KM12 colon = test system: KM12 colon
OVCAR-4 ovarian = test system: OVCAR-4 ovarian
ACHN renal = test system: ACHN renal

For `C=CC(=O)N1CCC(Oc2cc3c(Nc4ccc(Cl)c(Cl)c4F)ncnc3cc2OC)CC1`, the GI50 (K-562 leukemia) was 1270 nM, the TGI (K-562 leukemia) was 2880 nM and the GI50 (NCI-H522 lung) was < 10 nM. The TGI (NCI-H522 lung) was 16.2 nM, the GI50 (BT-549 breast) was 1110 nM and the TGI (BT-549 breast) was 3.99 µM. It also gave a GI50 (CCRF-CEM leukemia) of 1260 nM, a TGI (CCRF-CEM leukemia) of 2740 nM and a GI50 (SK-MEL-28 melanoma) of 14 µM. It also gave a TGI (SK-MEL-28 melanoma) of 27.1 µM, a GI50 (UACC-62 melanoma) of 2440 nM and a TGI (UACC-62 melanoma) of 11.6 µM. For the same molecule, the GI50 (A498 renal) was 137 nM, the TGI (A498 renal) was 1950 nM and the GI50 (MCF7 breast) was 690 nM. The TGI (MCF7 breast) was 14.1 µM, the GI50 (RXF 393 renal) was 230 nM and the TGI (RXF 393 renal) was 1310 nM. It also gave a GI50 (SNB-75 CNS) of 291 nM, a TGI (SNB-75 CNS) of 2130 nM and a GI50 (RPMI-8226 leukemia) of 1250 nM. The TGI (RPMI-8226 leukemia) was 3.26 µM, the GI50 (A549 NSCLC) was 1240 nM and the TGI (A549 NSCLC) was 12 µM. The GI50 (SK-MEL-5 melanoma) was 2980 nM, the TGI (SK-MEL-5 melanoma) was 13.3 µM and the GI50 (HOP-62 NSCLC) was 2270 nM. For the same molecule, the TGI (HOP-62 NSCLC) was 8.53 µM, the GI50 ([…]-0 renal) was 1310 nM and the TGI (786-0 renal) was 4.74 µM. It also gave a GI50 (HOP-92 NSCLC) of 1390 nM, a TGI (HOP-92 NSCLC) of 4.02 µM and a GI50 (SNB-19 CNS) of 2920 nM. For the same molecule, the TGI (SNB-19 CNS) was 14.4 µM, the GI50 (SK-OV-3 ovarian) was < 10 nM and the TGI (SK-OV-3 ovarian) was 1520 nM. The GI50 (NCI-H460 NSCLC) was 2870 nM, the TGI (NCI-H460 NSCLC) was 13.7 µM and the GI50 (EKVX NSCLC) was < 10 nM. The TGI (EKVX NSCLC) was 2140 nM, the GI50 (LOX IMVI melanoma) was 1620 nM and the TGI (LOX IMVI melanoma) was 3.47 µM. For the same molecule, the GI50 (HS 578T breast) was 1040 nM, the TGI (HS 578T breast) was 2460 nM and the GI50 (DU-145 prostate) was 879 nM. For the same molecule, the TGI (DU-145 prostate) was 14.6 µM, the GI50 (NCI-H322M lung) was < 10 nM and the TGI (NCI-H322M lung) was 4.15 µM. The GI50 (U251 glioblastoma) was 3.52 µM, the TGI (U251 glioblastoma) was 15.7 µM and the GI50 (OVCAR-8 ovarian) was 1950 nM. It also gave a TGI (OVCAR-8 ovarian) of 12.2 µM, a GI50 (MOLT-4 leukemia) of 430 nM and a TGI (MOLT-4 leukemia) of 1880 nM. The GI50 (TK-10 renal) was < 10 nM, the TGI (TK-10 renal) was 738 nM and the GI50 (NCI/ADR-RES ovarian) was 1100 nM. For the same molecule, the TGI (NCI/ADR-RES ovarian) was 3.21 µM, the GI50 (SF-268 CNS) was 1190 nM and the TGI (SF-268 CNS) was 5.58 µM. It also gave a GI50 (UO-31 renal) of 137 nM, a TGI (UO-31 renal) of 2080 nM and a GI50 (HT29 colon) of 2420 nM. It also gave a TGI (HT29 colon) of 11.9 µM, a GI50 (UACC-257 melanoma) of 3.33 µM and a TGI (UACC-257 melanoma) of 13.6 µM. For the same molecule, the GI50 (OVCAR-3 ovarian) was 244 nM, the TGI (OVCAR-3 ovarian) was 3.21 µM and the GI50 (COLO 205 colon) was 4.34 µM. It also gave a TGI (COLO 205 colon) of 18.4 µM, a GI50 (SW-620 colon) of 4.42 µM and a TGI (SW-620 colon) of 16.6 µM. It also gave a GI50 (SK-MEL-2 melanoma) of 1750 nM, a TGI (SK-MEL-2 melanoma) of 4.66 µM and a GI50 (T-47D breast) of 17.3 nM. It also gave a TGI (T-47D breast) of 7.89 µM, a GI50 (MALME-3M melanoma) of 2520 nM and a TGI (MALME-3M melanoma) of 11.2 µM. For the same molecule, the GI50 (OVCAR-5 ovarian) was 1230 nM, the TGI (OVCAR-5 ovarian) was 11.8 µM and the GI50 (IGROV1 ovarian) was < 10 nM. It also gave a TGI (IGROV1 ovarian) of 817 nM, a GI50 (HCT-15 colon) of 2380 nM and a TGI (HCT-15 colon) of 12.7 µM. It also gave a GI50 (MDA-MB-435 melanoma) of 2640 nM, a TGI (MDA-MB-435 melanoma) of 10.9 µM and a GI50 (PC-3 prostate) of 1960 nM. The TGI (PC-3 prostate) was 10.4 µM, the GI50 (NCI-H23 lung) was 1780 nM and the TGI (NCI-H23 lung) was 6.13 µM. It also gave a GI50 (MDA-MB-231 breast) of 2100 nM, a TGI (MDA-MB-231 breast) of 14 µM and a GI50 (SF-295 CNS) of 4.15 µM. The TGI (SF-295 CNS) was 14.9 µM, the GI50 (CAKI-1 renal) was 198 nM and the TGI (CAKI-1 renal) was 1700 nM. It also gave a GI50 (M14 melanoma) of 3.01 µM, a TGI (M14 melanoma) of 15.4 µM and a GI50 (HCC-2998 colon) of 1620 nM. For the same molecule, the TGI (HCC-2998 colon) was 7.47 µM, the GI50 (HL-60(TB) leukemia) was 1940 nM and the TGI (HL-60(TB) leukemia) was 3.49 µM. The GI50 (SN12C renal) was 353 nM, the TGI (SN12C renal) was 6.44 µM and the GI50 (NCI-H226 lung) was 813 nM. The TGI (NCI-H226 lung) was 13.2 µM, the GI50 (SF-539 CNS) was 1360 nM and the TGI (SF-539 CNS) was 3.56 µM. The GI50 (MDA-MB-468 breast) was < 10 nM, the TGI (MDA-MB-468 breast) was < 10 nM and the GI50 (HCT-116 colon) was 3.73 µM. It also gave a TGI (HCT-116 colon) of 15.2 µM, a GI50 (KM12 colon) of 3.07 µM and a TGI (KM12 colon) of 12.7 µM. For the same molecule, the GI50 (OVCAR-4 ovarian) was 363 nM, the TGI (OVCAR-4 ovarian) was 5.42 µM and the GI50 (ACHN renal) was < 10 nM. The TGI (ACHN renal) was 11.2 µM.
